Assay results reported in patent US4105668A, “Process for 6-amino-2,2-dimethyl-3-(5-tetrazolyl)penam” (Pfizer Inc., priority 1977, dated 1978).
≈ marks a conversion by molar mass, not a printed value.

Columns and labels:
Isoelectric point = assay type: physicochemical; conditions: in water
Staphylococcus aureus [1] = test: In vivo antibacterial activity, protection of mice against systemic infection (lethal intraperitoneal inoculum); conditions: infected mice, multiple dosing
Escherichia coli [2] = test: as above; conditions: infected mice, multiple dosing
Staphylococcus aureus [3] = test: In vitro antibacterial activity (MIC), two-fold serial dilution in Brain-Heart Infusion broth; assay type: cell-based; conditions: S. aureus, overnight
Experimental: (§1) The broth is inoculated with the bacterial culture, and with the test compound, and then it is incubated overnight. On the next day, the test is read visually. The minimum inhibitory concentration (MIC) is the lowest concentration of compound which prevents turbidity, i.e., which prevents growth of the microorganism. In vitro activities against certain pathogenic bacteria area shown in Table I. This in vitro activity makes the compound of value for topical applications, for example, in the form of creams and ointments, and for the sterilization of sickroom and hospital surfaces, equipment and the like. […] This in vivo activity makes this compound suitable for the control of bacterial infections caused by susceptible organisms, in mammals, including man, by both the oral and parenteral mode of administration.

Escherichia coli [4] = test: as above; assay type: cell-based; conditions: E. coli, overnight
Experimental: as §1

Streptococcus pyogenes = test: as above; assay type: cell-based; conditions: S. pyogenes, overnight
Experimental: as §1

[5] = test system: gram-positive and gram-negative bacteria; test: In vitro activity against gram-positive and gram-negative bacteria; assay type: cell-based
Experimental: as §1

[6] = test system: Staphylococcus aureus or Escherichia coli; test: In vivo antibacterial activity in infected mice (statement in words); conditions: SC and PO
Experimental: as §1

Row | isoelectric point (Isoelectric point) [pH] | SMILES | Percentage protection S. Aureus (Staphylococcus aureus [1]; 6 mg./kg. SC) [%] | Percentage protection S. Aureus (Staphylococcus aureus [1]; 12 mg./kg. SC) [%] | Percentage protection S. Aureus (Staphylococcus aureus [1]; 25 mg./kg. SC) [%] | Percentage protection S. Aureus (Staphylococcus aureus [1]; 50 mg./kg. SC) [%] | Percentage protection E. coli (Escherichia coli [2]; 25 mg./kg. SC) [%] | Percentage protection E. coli (Escherichia coli [2]; 50 mg./kg. SC) [%] | Percentage protection E. coli (Escherichia coli [2]; 200 mg./kg. PO) [%] | MIC (Staphylococcus aureus [3]) [ng/mL] | MIC (Escherichia coli [4]) [µg/mL] | MIC (Streptococcus pyogenes) [ng/mL] | activity against a wide variety of gram-positive and gram-negative bacteria [5] | antibacterial activity in vivo [6]
1 | ~4.1 | CC1(C)S[C@@H]2[C@H](N)C(=O)N2[C@H]1c1nn[nH]n1 [6-amino-2,2-dimethyl-3-(5-tetrazolyl)penam] |  |  |  |  |  |  |  |  |  |  |  | 
2 |  | CC1(C)S[C@@H]2[C@H](NC(=O)[C@H](N)c3ccc(O)cc3)C(=O)N2[C@H]1c1nn[nH]n1 [6-(D-2-Amino-2-[4-hydroxyphenyl]acetamido)-2,2-dimethyl-3-(5-tetrazolyl)penam] | 50 | 50 | 70 | 80 | 80 | 100 | 100 | 6 (≈ 0.0154 µM) | 0.78 (≈ 2 µM) | 1 (≈ 0.00257 µM) | shows activity against a wide variety of gram-positive and gram-negative bacteria | active as an antibacterial agent in vivo
